target: T1, CSF-1R (Homo sapiens, UniProt P07333); test: CSF-1R In Vitro AlphaScreen Assay; format: biochemical; settings: purified His-tagged kinase domain of CSF-1R, pEY substrate, 90 μM ATP
T1 construct: amino acids 568-912, GeneBank ID NM_005211; His; made in house; host or cells: baculovirus infected SF+Express insect cells
T1 sequence (P07333 568-912): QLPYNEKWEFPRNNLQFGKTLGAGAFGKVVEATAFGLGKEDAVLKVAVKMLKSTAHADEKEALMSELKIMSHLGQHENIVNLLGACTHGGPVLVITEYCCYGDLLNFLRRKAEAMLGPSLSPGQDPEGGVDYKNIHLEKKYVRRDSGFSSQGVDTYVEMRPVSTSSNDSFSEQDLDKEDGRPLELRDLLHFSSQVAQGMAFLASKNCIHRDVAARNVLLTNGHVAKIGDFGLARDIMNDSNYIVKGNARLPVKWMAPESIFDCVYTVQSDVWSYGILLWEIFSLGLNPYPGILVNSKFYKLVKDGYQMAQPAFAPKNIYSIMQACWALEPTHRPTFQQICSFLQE
Procedure: CSF-1R In Vitro AlphaScreen Assay
Activity of purified CSF-1R was determined in vitro using an Amplified Luminescent Proximity Homogeneous Assay (ALPHA)(Perkin Elmer), which measures phosphorylation of the CSF-1R substrate, biotinylated poly-glutamine-tyrosine peptide (pEY-HTRF CisBio 61GT0BLD), as described below. The His-tagged kinase domain of CSF-1R (i.e., amino acids 568-912, GeneBank ID NM_005211; (see page 25 lines 13-19 of WO 2006/067445 for the sequence listing)) was purified from baculovirus infected SF+Express insect cells (1.4×10^6 cells/ml), French pressed and chromatographed through subsequent Qiagen Ni-NTA, Superflow Mono Q HR 10/10, and Superdex 200 SEC columns. Typical yield was 322 ug/l of cell pellet at >95% purity.
The phosphorylation of the CSF-1R substrate in the presence and absence of the compound of interest was determined. Briefly, 0.2 pM of purified CSF-1R, 5 nM pEY substrate, and compound were preincubated in 1× buffer for 30 minutes at 25° C. Reactions were initiated with addition of 90 μM adenosine triphosphate (ATP) in 1× buffer and incubated at 25° C. for 40 minutes and reactions stopped by addition of 5 μl of detection mix consisting of 136 mM NaCl, 102 mM ethylenediamine tetraacetic acid, 1.65 mg/ml BSA, 40 ug/ml Streptavidin donor beads (Perkin Elmer 6760620M), 40 ug/ml pEY100 acceptor beads (Perkin Elmer 6760620M). Plates were incubated at 25° C. for 18 hours in the dark. Phosphorylated substrate was detected by an EnVision plate reader (Perkin Elmer) 680 nm excitation, 520-620 nm emission. Data was graphed and IC50s calculated using Excel Fit (Microsoft).

| IC50 [µM] | Compound |
| --- | --- |
| 0.01 | Cc1cc(C)cc(C(=O)Nc2ccc(Cl)c(C(=O)Nc3cnc(C(C)C)s3)c2)c1 [Example 20, 2-Chloro-5-[(3,5-dimethylbenzoyl)amino]-N-(2-isopropyl-1,3-thiazol-5-yl)benzamide] |
| 0.013 | CC(C)c1ncc(NC(=O)c2cc(NC(=O)c3cc(F)cc(C(F)(F)F)c3)ccc2Cl)s1 [Example 21, 2-Chloro-5-{[3-fluoro-5-(trifluoromethyl)benzoyl]amino}-N-(2-isopropyl-1,3-thiazol-5-yl)benzamide] |
| 0.007 | CON(C)C(=O)c1ncc(NC(=O)c2cc(NC(=O)c3cccc(C(C)(C)C#N)c3)ccc2C)s1 [Example 15, 5-[(5-{[3-(1-Cyano-1-methylethyl)benzoyl]amino}-2-methylbenzoyl)amino]-N-methoxy-N-methyl-1,3-thiazole-2-carboxamide] |

— patent publication US20080312206A1, “Chemical Compounds-149” (AstraZeneca AB, priority 2005, published 2008)
